Results on 9 compounds are retold here after paper PMC13194776, “Small-molecule binding and sensing with a designed protein family” (Nature Communications, 2026).

Where only a bound is given, the exact number is not on record here.

For assay [1], the target named is T1, roc22182.
T1 construct: N-terminal hexahistidine tag; original design
As to the kind of experiment: Isothermal titration calorimetry at 25 °C with rocuronium in 20 mM HEPES, 50 mM NaCl, pH 8, no DMSO, single-site binding model. The settings on record: read-out: KD (μM), ITC, rocuronium. As for the experimental part: (§1) Binding affinity of designed proteins was assessed by titrating purified protein with ligand using a microcal PEAQ ITC-Automated instrument. Both protein and ligand were prepared in identical buffers that were degassed by bottle-top filtration. […] All titrations were performed at 25 °C and 19 total injections, 0.4 μL for the first injection and 2 μL for the remaining 18. Resulting titration data were analyzed with the Malvern Panalytical ITC Analysis software, and a single-site binding model was used to fit the resulting data.
(§2) Supplementary Table 2. Small-molecule binding characterization results
(§3) Target Design name Number of KD (μM) KD determination
In general terms: Isothermal titration calorimetry measures the heat released or taken up as one component is titrated into another.

For assay [2], the target named is T2, roc22182.1.
T2 construct: N-terminal hexahistidine tag; 9 mutations compared to the original design
The assay is described as above. The settings on record: read-out: KD (μM), ITC, rocuronium. How it is done: as §1, §2, §3

The target in assay [3] is T3, wrf929.
T3 construct: N-terminal hexahistidine tag; original design
As to the kind of experiment: Isothermal titration calorimetry at 25 °C with warfarin or apixaban, 5% DMSO in all solutions, single-site binding model. Particulars: read-out: KD (μM), ITC, warfarin and apixaban. How it is done: as §1, §2, §3

The target in assay [4] is T4, wrf1071.
T4 construct: N-terminal hexahistidine tag; original design
Described as above. Particulars: read-out: KD (μM), ITC, warfarin and apixaban. How it is done: as §1

Assay [5] addresses T5, ohp1952.
T5 construct: N-terminal hexahistidine tag; original design
Nature of the assay: Fluorescence polarization cross-reactivity assay with TAMRA-labelled ligands at 5 nM (HCY, OHP, WRF) or 10 nM (SN-38) titrated with binder or albumin. Type of assay: binding. The settings on record: read-out: KD (μM), specificity table, TAMRA-labelled targets. An excerpt: (§4) measured against all six targets. Raw binding traces can be found in Supplementary
(Fluorescence polarisation rises when a labelled molecule tumbles more slowly, as on binding a larger partner.)

Assay [6] addresses T6, albumin.
T6 construct: control protein
The assay is described as above. Type of assay: binding. The settings on record: read-out: KD (μM), specificity table, TAMRA-labelled targets.
Text: as §4

Assay [7] has as its target T7, iri807.1.
T7 construct: N-terminal hexahistidine tag; 3 mutations compared to the original design
The assay is described as above. It counts as binding. Particulars: read-out: KD (μM), specificity table, TAMRA-labelled targets.
Text: as §4

For assay [8], the target named is T2, roc22182.1. Described as above. It counts as binding. Particulars: read-out: KD (μM), specificity table, TAMRA-labelled targets.
Text: as §4

The target of assay [9] is T8, hcy129.1.
T8 construct: N-terminal hexahistidine tag; 4 mutations compared to the original design
The description is as above. The settings on record: read-out: KD (μM), specificity table, TAMRA-labelled targets. It counts as binding.
Text: as §4

Assay [10] concerns the target T9, iri3009.
T9 construct: N-terminal hexahistidine tag; original design
Nature of the assay: Fluorescence polarization with 6 nM fluorophore-labelled OHP-AF488 or SN-38-TAMRA titrated with binder protein in PBS at room temperature, binding isotherm fit. Particulars: read-out: KD (μM), FP. As for the experimental part:
(§5) Two-fold serial dilutions of the binder protein were prepared in 24 wells with constant amounts of the target ligand, and the plate was incubated at room temperature, shaking for at least 30 min. […] A binding isotherm model was used to fit the data and estimate KD.
as §2, §3

Assay [11] has as its target T10, iri807.2.
T10 construct: N-terminal hexahistidine tag; 3 mutations compared to the original design
Described as above. The settings on record: read-out: KD (μM), FP. How it is done: as §5, §2, §3

The target in assay [12] is T11, iri807.
T11 construct: N-terminal hexahistidine tag; original design
The assay is described as above. Particulars: read-out: KD (μM), FP. As for the experimental part:
as §5, §2, §3

The target in assay [13] is T7, iri807.1. The description is as above. Particulars: read-out: KD (μM), FP. As for the experimental part:
as §5, §2, §3

The target in assay [14] is T12, iri807.3.
T12 construct: N-terminal hexahistidine tag; 3 mutations compared to the original design
The description is as above. The settings on record: read-out: KD (μM), FP. How it is done:
as §5, §2, §3

Assay [15] addresses T4, wrf1071. Nature of the assay: Fluorescence polarization cross-reactivity assay with TAMRA-labelled ligands at 5 nM (HCY, OHP, WRF) or 10 nM (SN-38) titrated with binder or albumin. It counts as binding. The settings on record: read-out: KD (μM), specificity table, TAMRA-labelled targets.
Text: as §4

In assay [16] the target is T8, hcy129.1. Nature of the assay: Isothermal titration calorimetry of purified designs with unlabelled ligand at 25 °C, single-site fit; 1% DMSO for cortisol, 5% DMSO for warfarin and apixaban, HEPES pH 8 for rocuronium. Type of assay: binding. The settings on record: read-out: KD (μM) ITC. How it is done: Characterization of binding affinity by ITC
as §1

For assay [17], the target named is T13, hcy129_mpnn5.
T13 construct: ProteinMPNN surface-redesigned version; 9 mutations compared to the original design as printed
As to the kind of experiment: Isothermal titration calorimetry at 25 °C with cortisol, 1% DMSO in all solutions, single-site binding model. Particulars: read-out: KD (μM), ITC, cortisol. How it is done:
as §1, §2, §3

The target of assay [18] is T14, hcy129.
T14 construct: N-terminal hexahistidine tag; original design
Described as above. Particulars: read-out: KD (μM), ITC, cortisol. As for the experimental part:
as §1, §2, §3

In assay [19] the target is T15, hcy129.1_CID.
T15 construct: 7 mutations compared to the original design
The description is as above. Particulars: read-out: KD (μM), ITC, cortisol. How it is done:
as §1, §2, §3

Assay [20] has as its target T8, hcy129.1. The assay is described as above. Particulars: read-out: KD (μM), ITC, cortisol. How it is done: as §1, §2, §3
The test system of assay [21] is hcy129.1_CID-SmBiT and miniH11_LgBiT. As to the kind of experiment: Cortisol-induced dimerization NanoBiT luminescent sensor. Type of assay: biochemical. The settings on record: sensor components 200 nM each, 2 h, DTZ 25 μM; estimated; read-out: EC50 of luminescent signal.
Experimental: Immediately after adding the luciferase substrate diphenylterazine (DTZ) at a final concentration of 25 μΜ, the luminescent signal was measured on a Neo2 plate reader (Fig. 4H).
hcy129.1_CID (200 nM) and minibinder designed for CID (miniH11, 200 nM) was titrated with various
ligands and incubated for 2 hours, followed by addition of DTZ (25 μM) to initiate luminescence reaction.
All reactions were carried out at 50 μL final volume in HBS-EP+ buffer (Cytiva).
Assay [22] in a line: Cross-reactivity FP binding to OHP-TAMRA. Particulars: OHP-TAMRA 5 nM. How it is done: (§6) Two-fold serial dilutions of the binder protein were prepared in 24 wells with constant amounts of the target ligand, and the plate was incubated at room temperature, shaking for at least 30 min. Fluorescence polarization filter cube (Red FP, EX 530/25 nm;EM 590/35 nm, Agilent) was used to measure polarization with the plate reader (Synergy Neo2, Biotek). A binding isotherm model was used to fit the data and estimate KD.
(§7) We performed an all by all binding experiment between all targets and representative binders for each target. […] Fluorescence polarization filter cube (Red1 FP, EX 530/25 nm;EM 590/35 nm, Agilent) was used to measure polarization. […] Biotinylated APX and ROC were immobilized to the Streptavidin biosensor and all binders were titrated 3-fold starting from 25uM. Other experimental conditions were kept the same as described above for characterization using FP and BLI.

The nature of assay [23]: Cross-reactivity FP binding to SN-38-TAMRA. Particulars: SN-38-TAMRA 10 nM. How it is done:
as §6, §7

Assay [24] can be described thus: Cross-reactivity BLI binding to APX-Biotin. The settings on record: APX-Biotin immobilized, binders titrated 3-fold from 25uM. How it is done: (§8) Biolayer interferometry (BLI) was used to estimate the binding affinity and screen for binding of the purified proteins and target small-molecules APX, and SN-38. […] 1 μM of small-molecule targets with biotin conjugated (APX-Biotin and SN-38-Biotin) were used as ligands to be immobilized to the Octet Streptavidin biosensors (Sartorius). Titration experiments were performed at 25 °C, and the kinetic response data was collected using Octet RED96 and R8 (ForteBio). The resulting responses of the analytes were corrected using the signal from the reference buffer, and further analysis was performed using the Octet Data Analysis software.
as §7
Background: Biolayer interferometry detects binding as a change in optical thickness at a sensor tip.

A short description of assay [25]: Cross-reactivity FP binding to HCY-TAMRA. The settings on record: HCY-TAMRA 5 nM. As for the experimental part:
as §6, §7

Assay [26] is described as follows: Cross-reactivity BLI binding to ROC-Biotin. The settings on record: ROC-Biotin immobilized, binders titrated 3-fold from 25uM. How it is done:
as §8, §7

The target of assay [27] is T16, apx1501.
T16 construct: N-terminal hexahistidine tag; original design
As to the kind of experiment: Isothermal titration calorimetry at 25 °C with warfarin or apixaban, 5% DMSO in all solutions, single-site binding model. The settings on record: read-out: KD (μM), ITC, warfarin and apixaban. How it is done:
as §1

The target of assay [28] is T17, apx1049.
T17 construct: N-terminal hexahistidine tag; original design
Described as above. Particulars: read-out: KD (μM), ITC, warfarin and apixaban. As for the experimental part:
as §1

In assay [29] the target is T18, apx2592.
T18 construct: N-terminal hexahistidine tag; original design
Described as above. The settings on record: read-out: KD (μM), ITC, warfarin and apixaban. As for the experimental part:
as §1

Assay [30] deals with T19, apx1493.
T19 construct: N-terminal hexahistidine tag; original design
The assay is described as above. The settings on record: read-out: KD (μM), ITC, warfarin and apixaban. How it is done: as §1

The term Kd denotes the free concentration of one partner at which half of the binding sites on the other are occupied at equilibrium, for simple one-to-one binding. Regarding `C=CC[N+]1([C@H]2C[C@H]3[C@@H]4CC[C@H]5C[C@H](O)[C@@H](N6CCOCC6)C[C@]5(C)[C@H]4CC[C@]3(C)[C@H]2OC(C)=O)CCCC1` [rocuronium, rocuronium (ROC)], the Kd is greater than 50 µM in assay [1] and greater than 4 µM in assay [2].

Regarding `CC(=O)CC(c1ccccc1)c1c(O)c2ccccc2oc1=O` (stereo not drawn) [warfarin, warfarin (WRF)], the figures for the Kd in [3] and in assay [4] were 5.9 µM and 0.83 µM, respectively.

Turning to “17α-hydroxyprogesterone-TAMRA (TAMRA conjugate) [OHP-TAMRA]”, the Kd in assay [5] was 0.005 µM; in [6] it was 52 µM; in assay [7] it was 0.27 µM; in assay [8], 0.078 µM; in assay [9], 0.005 µM.

In the case of “SN-38-TAMRA (fluorophore linker conjugate of SN-38)”, the Kd in assay [10] came out at 1.41 µM; in [11], 0.063 µM; in [12] it was 0.09 µM; in [13] it was 0.059 µM; in assay [14] it was 0.016 µM; in [15] it was 42 µM. In assay [7], the Kd is 0.048 µM.

Take `C[C@]12CCC(=O)C=C1CC[C@@H]1[C@@H]2[C@@H](O)C[C@@]2(C)[C@H]1CC[C@]2(O)C(=O)CO` [cortisol, cortisol (HCY)]: the Kd in [16] turned out to be 0.068 µM; in [17], 3.4 µM; in assay [18], 2.3 µM; in assay [19] it was 0.064 µM; in assay [20] it was 0.065 µM.

By EC50 is commonly meant the concentration that produces a half-maximal response. Take `C[C@]12CCC(=O)C=C1CC[C@@H]1[C@@H]2[C@@H](O)C[C@@]2(C)[C@H]1CC[C@]2(O)C(=O)CO` [cortisol]: the EC50 in assay [21] is 72 nM.

Take “cortisol-TAMRA (TAMRA conjugate of cortisol) [HCY-TAMRA]”: the Kd in assay [15] turned out to be 67 µM; in assay [7], 26 µM; in assay [8] it was 1.4 µM; in assay [9], 0.005 µM.

For “Albumin: control protein known for promiscuous binding to hydrophobic ligands; bovine serum albumin per b230”, the “Binding affinity KD” value in assay [22] is reported as “weak binding”; in assay [23] it was “No binding”; in assay [23] (listed as albumin), “no binding”; in assay [24] it was “No binding”; in assay [24] (listed as albumin), “no binding”; in [25] it was “No binding”. Moreover, the “Binding affinity KD” value in assay [25] (listed as albumin) was “no binding”; in assay [26] it was “No binding”; in [26] (listed as albumin), “no binding”.

Turning to `COc1ccc(-n2nc(C(N)=O)c3c2C(=O)N(c2ccc(N4CCCCC4=O)cc2)CC3)cc1` [apixaban, apixaban (APX)], the Kd in [27] came out at 5.5 µM; in assay [28], 0.679 µM; in [29], 3.16 µM; in assay [30], 9.67 µM.
